Measured values as given in patent US20210254138A1, “SIALIC ACID TRANSPORTER PROTEINS AS BIOMARKERS AND DRUG TARGETS” (Quadram Institute Bioscience, priority 2018, published 2021).

Tests used:
[1] = target: T1, E. coli sialic acid aldolase (EcNanA) (Escherichia coli, UniProt P0A6L4); test: Sialic acid aldolase activity assay coupled to lactate dehydrogenase, EcNanA; type: biochemical; conditions: 10 mM sialic acid, 37° C., pH 7.0, A340 nm
T1 construct: purchased Carbosynth, UK CAS: 9027-60-5 (catalogue number not given)
T1 sequence (P0A6L4 whole entry): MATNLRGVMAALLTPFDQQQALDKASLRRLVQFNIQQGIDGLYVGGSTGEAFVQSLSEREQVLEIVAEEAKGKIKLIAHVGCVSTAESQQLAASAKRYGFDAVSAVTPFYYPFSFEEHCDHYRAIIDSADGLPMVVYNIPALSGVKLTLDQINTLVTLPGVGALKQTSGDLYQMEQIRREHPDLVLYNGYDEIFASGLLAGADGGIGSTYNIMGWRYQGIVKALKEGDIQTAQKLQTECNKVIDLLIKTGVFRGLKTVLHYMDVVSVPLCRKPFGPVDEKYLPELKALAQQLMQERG
Experimental: Aldolase cleavage was measured by monitoring the decrease in absorbance at 340 nm (A340 nm) as NADH is converted to NAD by lactate dehydrogenase in a coupled reaction where pyruvate is released from sialic acid by the aldolase. Reactions were performed in a 100 μl volume with final concentrations of 150 μM NADH (Sigma, St Louis, USA), 0.5 U LDH (Sigma, St Louis, USA), 10 mM sialic acid (Neu5Ac or 2,7-anhydro-Neu5Ac) and 1.5 μg purified RgNanA or EcNanA (E. coli aldolase CAS: 9027-60-5, Carbosynth, UK) in 50 mM Na-phosphate buffer (pH 7.0). The reactions were performed at 37° C. and monitored using FLUOstar OPTIMA (BMG LABTECH). For kinetics experiments, the sialic acid concentration was varied at 20, 10, 5, 4, 2, 1, 0.4, 0.2, 0.1 mM and the initial rate of reaction determined for each concentration in triplicate before analysis was performed by fitting the data to a Michaelis-Menten using Graph Pad Prism (V 5.03). […]
The first step of sialic acid metabolism is the conversion of sialic acid to ManNAc and pyruvate catalysed by a sialic acid aldolase (NanA). […] The substrate specificity of RgNanA was determined using a coupled activity assay where pyruvate released during the conversion of sialic acid to ManNAc is converted to lactate by a lactate dehydrogenase and the subsequent loss of absorbance at 340 nm measured as NADH is converted to NAD^+. […]

[2] = system: R. gnavus ATCC 29149 wild-type; test: Growth on sole carbon source, wild-type strain; type: cell-based; conditions: 11.1 mM in YCFA, anaerobic
Experimental: R. gnavus ATCC 29149 was routinely grown in an anaerobic cabinet (Don Whitley, Shipley, UK) in BHI-YH as previously described (Crost et al., 2013). Growth on single carbon sources utilized anaerobic basal YCFA medium (Duncan et al., 2002) supplemented with 11.1 mM of specific mono- or oligosaccharides (2,7-anhydro-Neu5Ac, 3'Sialyllactose (3'SL) or glucose). The bacteria were grown to late exponential phase for RNA extraction, the culture was performed in 14 ml tubes. Growth was determined spectrophotometrically by monitoring changes in optical density at […] compared to the same medium without bacterium (ΔOD595 nm) hourly for 10 hours.
(§1) The ability of the mutants to utilise sialic acids and sialoconjugates was assessed by supplementing YCFA with 11.1 mM of 2,7-anhydro-Neu5Ac, 3'SL, glucose or Neu5Ac in triplicate 200 μl cultures in 96-well microtiter plates. The OD595 nm was measured hourly for 10 h in an infinite F50 plate reader (Tecan, UK) housed within an anaerobic cabinet connected to Magellan V7.0 software.

[3] = system: R. gnavus ATCC 29149 nan deletion mutants; test: Growth on sole carbon source, nan deletion mutants; type: cell-based; conditions: 11.1 mM in YCFA, anaerobic
From the text: R. gnavus mutants were generated using the ClosTron methodology (Heap et al., 2010), which inserts an erythromycin resistance cassette into the gene of interest. Target sites were identified using the Pertuka method (Perutka et al., 2004). The re-targeted introns were synthesised and ligated into the pMTL007C-E2 vector by ATUM (MenloPark, USA). The plasmids were then transformed into E. coli CA434 using the heat-shock protocol, and the recombinant clones selected for chloramphenicol resistance. Recombinant E. coli cells were grown overnight in 10 ml LB, 1 ml of the overnight culture was pelleted and washed with PBS. The E. coli cell pellet was resuspended in 200 μl of an R. gnavus overnight culture and the cell suspension spotted onto a non-selective BHI-YH plate. […]
as §1

Structure (SMILES)	aldolase activity against substrate [1]	utilisation as a sole carbon source (growth) [2]	growth on substrate as sole carbon source [3]
CC(=O)N[C@H]1C2OC(C(=O)O)(C[C@@H]1O)O[C@@H]2[C@H](O)CO (stereo partly shown) [2,7-anhydro-Neu5Ac]	neither enzyme showed activity	able to utilise	no growth was detected
CC(=O)N[C@H]1[C@H]([C@H](O)[C@H](O)CO)OC(O)(C(=O)O)C[C@@H]1O (stereo partly shown) [Neu5Ac, N-acetylneuraminic acid]	showed activity		
